Experimental data: patent US5780254A, “Method for detection of herbicides” (Sandoz Ltd, priority 1996, dated 1998)

What was measured:
ADSS from E. coli = target: T1, ADSS from E. coli (Escherichia coli, UniProt P0A7D4); experiment: ADSS enzyme assay, E. coli ADSS; format: biochemical; details: E. coli ADSS (FIG. 6); for product formation by ADSS: compound at 100 μM
T1 construct: endogenous in cells; host or cells: E. coli
Protocol: (§1) ADSS is obtained from 4-5 day old, etiolated seedlings of Zea mays. Seedlings are homogenized in a Waring blender with an equal volume (grams of tissue=mls of buffer) of extraction buffer containing 50 mM EPPS, pH 7.5, 5 mM MgCl2, 0.1 mM EDTA, 5 mM sodium bisulfite, 5 mM DTT, 0.1 mM phenylmethanesulfonyl fluoride and 10% glycerol. The extract is expressed through Miracloth (Calbiochem, La Jolla, Calif.) sandwiched between layers of cheesecloth. To precipitate phenolics and nucleic acids, 0.2 to 0.4% w/v protamine sulfate is added to the extract. The extract is stirred for 30 minutes, and then centrifuged at 45,000×G for 60 minutes. The resulting supernatant is fractionated with ammonium sulfate. Proteins are retained which precipitate at concentrations of ammonium sulfate greater than 45% saturation, but less than 55% saturation. Similar methods are used to isolate ADSS from wheat germ, E. coli and rat liver. ADSS activity is further purified by subjecting the preparation to DEAE cellulose chromatography. The column is equilibrated with chromatography buffer consisting of 50 mM EPPS, pH 7.5, 10% glycerol, 0.1 mM EDTA, 5 mM MgCl2 and 1 mM DTT. After loading the enzyme preparation, the column is washed with two bed volumes of the chromatography buffer, then eluted with a linear, 10-bed-volume gradient of 0 to 0.4M KCl dissolved in the same buffer. The peak of ADSS activity elutes at a KCl concentration of about 150 mM. Fractions containing activity are pooled and the proteins concentrated by ultrafiltration. At this stage, the enzyme is suitable for high capacity screening tests that are designed to discover inhibitory compounds. Alternatively, hydrophobic interaction chromatography can be used instead of DEAE-cellulose. This material is optionally further purified by passage through a column of Sephadex G-75 equilibrated with the chromatography buffer described above. The peak of ADSS activity elutes at a retention volume corresponding to a molecular weight of approximately 50,000 Da.
(§2) ADSS is assayed by anion exchange HPLC and by a continuous spectrophotometric assay. For the former, enzyme is diluted appropriately with 50 mM EPPS, pH 8.3, 10% ethylene glycol, 10 mM potassium phosphate and 1 mM MgCl2 to a volume of 92 μL. […] The column eluate is monitored at 270 nm using a Perkin-Elmer LC 480 diode array detector. Integrated peaks are quantified from standard curves. Identity of the products of the ADSS reaction, GDP and adenylosuccinate, are determined by comparing their retention times and spectra with those of authentic standards, purchased from Sigma Chemical Co.
(§3) For the spectrophotometric assay, reaction mixtures are the same as above, except that the volume is doubled. […] This method of quantification was validated using the HPLC method.

ADSS from rat liver = target: T2, ADSS from rat liver (Rattus norvegicus, UniProt D4AEP0); experiment: ADSS enzyme assay, rat liver ADSS; format: biochemical; details: rat liver ADSS (FIG. 6); for product formation by ADSS: compound at 100 μM
T2 construct: from tissue; host or cells: rat liver
T2 sequence (D4AEP0 1-456): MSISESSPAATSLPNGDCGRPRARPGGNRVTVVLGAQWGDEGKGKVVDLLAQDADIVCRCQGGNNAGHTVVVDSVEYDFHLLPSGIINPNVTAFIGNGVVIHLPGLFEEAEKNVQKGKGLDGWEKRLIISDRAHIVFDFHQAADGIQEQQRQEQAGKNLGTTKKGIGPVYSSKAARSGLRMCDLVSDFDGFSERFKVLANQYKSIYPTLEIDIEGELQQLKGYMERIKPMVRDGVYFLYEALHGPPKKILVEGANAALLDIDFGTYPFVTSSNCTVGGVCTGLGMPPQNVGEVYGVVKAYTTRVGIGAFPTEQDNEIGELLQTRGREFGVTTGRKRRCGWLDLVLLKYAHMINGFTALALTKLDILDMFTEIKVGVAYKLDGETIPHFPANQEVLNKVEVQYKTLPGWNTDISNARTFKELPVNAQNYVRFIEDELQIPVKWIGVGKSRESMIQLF
Protocol: as §1, §2, §3

Arabidopsis seeds [1] = experiment: Arabidopsis bioassay, determination of the lethal concentration (LC 90); details: read-out: lethal concentration (LC 90); concentration causing 90% or greater growth inhibition vs control; 7 days, about 28° C.
ADSS from wheat germ = target: T3, ADSS from wheat germ (Triticum aestivum, UniProt O24396); experiment: ADSS enzyme assay, wheat germ ADSS; format: biochemical; details: for product formation by ADSS: compound at 100 μM, wheat germ ADSS (not shown)
T3 construct: from tissue
T3 sequence (O24396 whole entry): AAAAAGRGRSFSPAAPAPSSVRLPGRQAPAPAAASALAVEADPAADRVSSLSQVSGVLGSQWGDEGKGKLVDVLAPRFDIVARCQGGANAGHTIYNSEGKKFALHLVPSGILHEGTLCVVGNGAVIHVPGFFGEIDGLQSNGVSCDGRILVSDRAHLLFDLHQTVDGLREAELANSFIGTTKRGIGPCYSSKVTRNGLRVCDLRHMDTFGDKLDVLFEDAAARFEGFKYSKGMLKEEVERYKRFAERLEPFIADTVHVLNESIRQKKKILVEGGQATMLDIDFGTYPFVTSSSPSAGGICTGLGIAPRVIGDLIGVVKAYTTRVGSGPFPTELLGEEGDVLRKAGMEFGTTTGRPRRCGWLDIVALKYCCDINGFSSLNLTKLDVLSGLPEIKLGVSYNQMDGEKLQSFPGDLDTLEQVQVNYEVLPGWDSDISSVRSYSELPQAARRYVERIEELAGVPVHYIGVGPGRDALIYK
Protocol: as §1, with “Fractions containing activity are pooled and the proteins concentrated by ultrafiltration. At this stage, the enzyme is suitable for high capacity screening tests that are designed to discover inhibitory compounds. Alternatively, hydrophobic interaction chromatography can be used instead of DEAE-cellulose. This material is optionally further purified by passage through a column of Sephadex G-75 equilibrated with the chromatography buffer described above. The peak of ADSS activity elutes at a retention volume corresponding to a molecular weight of approximately 50,000 Da.” left out
ADSS is assayed by anion exchange HPLC and by a continuous spectrophotometric assay. […] The column eluate is monitored at 270 nm using a Perkin-Elmer LC 480 diode array detector. Integrated peaks are quantified from standard curves. Identity of the products of the ADSS reaction, GDP and adenylosuccinate, are determined by comparing their retention times and spectra with those of authentic standards, purchased from Sigma Chemical Co.
as §3

[2] = tested on: adenylosuccinate lyase (ASL); experiment: Assay of adenylosuccinate lyase (ASL); format: biochemical, Zea mays; details: 1 mM concentration (data not shown)
Protocol: ASL is obtained from three day old, etiolated seedlings of Zea mays (maize). Seedlings are homogenized in a Waring blender with an equal volume (grams of tissue=mls of buffer) of 20 mM potassium phosphate buffer (KP buffer) containing 1 mM DTT. The slurry is then filtered through a cheese cloth and the filtrate subjected to 100,000×g centrifugation for 60 minutes. The clear supernatant is used for assaying ASL activity.
A typical reaction mixture in 1 mL contains 100-300 μL of ASL and 0.15 mM adenylosuccinate (30 μL of a 5 mM solution in KP buffer), the rest being KP buffer. Disappearance of absorbance at 280 nm is followed as a function of time to determine the rate of ASL activity. Inhibitors when needed are included to a final concentration of 1 mM in the assay mixture to observe the effect on the ASL activity. Compounds hydantocidin, N-acetylhydantocidin, NAP-H and hadacidin had no effect on the rate of ASL activity at 1 mM concentration (data not shown).

[3] = target: T4, adenylosuccinate synthetase (ADSS) isolated from maize (Zea mays, UniProt O24578); experiment: ADSS enzyme assay (HPLC and spectrophotometric), maize ADSS; format: biochemical; details: for product formation by ADSS: compound at 100 μM, maize ADSS (not shown); for time course of ADSS inhibition: spectrophotometric assay (FIG. 7, FIG. 8)
T4 construct: ADSS is obtained from 4-5 day old, etiolated seedlings of Zea mays; from tissue; host or cells: 4-5 day old etiolated maize seedlings
T4 sequence (O24578 45-484): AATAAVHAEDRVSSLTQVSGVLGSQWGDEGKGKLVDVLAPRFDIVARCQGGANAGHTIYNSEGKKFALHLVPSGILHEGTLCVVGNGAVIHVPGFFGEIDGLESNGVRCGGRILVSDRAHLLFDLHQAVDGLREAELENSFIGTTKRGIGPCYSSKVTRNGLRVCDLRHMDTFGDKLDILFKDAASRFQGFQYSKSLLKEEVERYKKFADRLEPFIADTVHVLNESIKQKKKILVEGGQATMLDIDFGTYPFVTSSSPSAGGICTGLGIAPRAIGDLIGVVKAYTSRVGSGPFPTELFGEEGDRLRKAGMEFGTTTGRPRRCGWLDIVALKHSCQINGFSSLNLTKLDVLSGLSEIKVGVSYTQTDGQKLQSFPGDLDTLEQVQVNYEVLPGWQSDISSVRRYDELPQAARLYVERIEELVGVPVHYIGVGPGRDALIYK
Protocol: as §1
ADSS is assayed by anion exchange HPLC and by a continuous spectrophotometric assay. For the former, enzyme is diluted appropriately with 50 mM EPPS, pH 8.3, 10% ethylene glycol, 10 mM potassium phosphate and 1 mM MgCl2 to a volume of 92 μL. […] Reactions are stopped by adding 1 μL of 4N HCl. 95 μL of the reaction mixture is injected to a Hamilton PRP-X100 column equilibrated with 3% acetonitrile. Reactants and products are eluted with a convex gradient (Curve=-2) to 6% 1M potassium phosphate, pH 7, and 12% 2M KCl delivered during a span of 30 min by a Perkin-Elmer 410 BIO pump. The column eluate is monitored at 270 nm using a Perkin-Elmer LC 480 diode array detector. Integrated peaks are quantified from standard curves. Identity of the products of the ADSS reaction, GDP and adenylosuccinate, are determined by comparing their retention times and spectra with those of authentic standards, purchased from Sigma Chemical Co.
For the spectrophotometric assay, reaction mixtures are the same as above, except that the volume is doubled. […] The optical density increases as AS is formed. […] This method of quantification was validated using the HPLC method.

Arabidopsis seeds [4] = experiment: Arabidopsis reversal assay with antidote compounds; format: in vivo; details: for Growth, % of Control: probe compound at 1.5× lethal concentration; for growth without the antidote (in words): probe compound alone, no antidote
Protocol: The solutions are filter sterilized prior to addition. FIG. 4 represents a typical set up in a reversion assay for discovering inhibitors of AMP biosynthesis.
The left side (columns 1-3) of the 24-well microtiter plate is designed for controls, and the right side (columns 4-6) are designated for one probe compound. […] Rows B,C and D are supplemented with three doses of an antidote for the control and probe compound. […] The three doses are 50,100 and 150 μl respectively.
Forty ml of Arabidopsis growth media as described in Example 1 is sterilized and allowed to cool to about 45° C. A probe compound (at 1.5× lethal concentration) is added to columns 4 through 6 (right half of the plate). Media is distributed at 1.0 ml per well to all wells. Sterile seeds are added to each well as described above. As in Example 1, the plate is incubated and growth is scored.

[5] = target: T4, adenylosuccinate synthetase (ADSS) isolated from maize; details: known from the literature; cited from earlier work
[6] = antidote Adenosine + Guanosine 0.5-5.0 mM
[7] = antidote Cytidine + Uridine 0.5-5.0 mM
[8] = antidote Hypoxanthine 0.5-5.0 mM

T1 sequence (P0A7D4 2-432): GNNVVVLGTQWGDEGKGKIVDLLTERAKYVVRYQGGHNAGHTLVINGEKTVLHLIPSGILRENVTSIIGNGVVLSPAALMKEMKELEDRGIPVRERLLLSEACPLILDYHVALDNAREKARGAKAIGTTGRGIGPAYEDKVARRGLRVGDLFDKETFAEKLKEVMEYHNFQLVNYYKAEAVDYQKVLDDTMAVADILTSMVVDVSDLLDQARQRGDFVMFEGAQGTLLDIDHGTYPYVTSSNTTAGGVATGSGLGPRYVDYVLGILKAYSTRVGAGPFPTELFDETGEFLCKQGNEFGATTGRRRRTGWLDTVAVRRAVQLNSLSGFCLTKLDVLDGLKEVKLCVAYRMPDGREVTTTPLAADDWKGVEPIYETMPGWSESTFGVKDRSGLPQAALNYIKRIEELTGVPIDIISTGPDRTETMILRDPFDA

5'-Phospho-N-acetyl-hydantocidin [NAP-H]
product formation by ADSS (ADSS from E. coli): Product is not formed | product formation by ADSS (ADSS from rat liver): Product is not formed | IC90 (Arabidopsis seeds [1]): ~8 µM | inhibition of ADSS (in words) (ADSS from wheat germ; 10 μM, crude (desalted) extract from wheat germ, HPLC assay (FIG. 5)): Inhibition of ADSS | product formation by ADSS (ADSS from wheat germ): Product is not formed | effect on the rate of ASL activity [2]: no effect | inhibition of ADSS (in words) ([3]; 5 μM, spectrophotometric assay): is confirmed | product formation by ADSS [3]: Product is not formed | reversibility of ADSS inhibition ([3]; enzyme incubated with 4 μM for 10 min, then Sephadex G-25): inhibition is reversible | time course of ADSS inhibition [3]: Inhibition is initially weak, but becomes greater | Growth, % of Control (Arabidopsis seeds [4]; No antidote, 0 mM): 0% | Growth, % of Control (Arabidopsis seeds [4]; antidote ADP 0.5-5.0 mM): 100% | Growth, % of Control (Arabidopsis seeds [4]; antidote AMP 0.5-5.0 mM): 100% | Growth, % of Control (Arabidopsis seeds [4]; antidote ATP 0.5-5.0 mM): 40% | Growth, % of Control (Arabidopsis seeds [4]; antidote Adenine 0.5-5.0 mM): 65% | Growth, % of Control (Arabidopsis seeds [4]; antidote Adenosine 0.5-5.0 mM): 80-100% | Growth, % of Control (Arabidopsis seeds [4]; [6]): 80% | Growth, % of Control (Arabidopsis seeds [4]; [7]): 0% | Growth, % of Control (Arabidopsis seeds [4]; antidote Guanine 0.5-5.0 mM): 0% | Growth, % of Control (Arabidopsis seeds [4]; antidote Guanosine 0.5-5.0 mM): 0% | Growth, % of Control (Arabidopsis seeds [4]; [8]): 0% | Growth, % of Control (Arabidopsis seeds [4]; antidote IMP 0.5-5.0 mM): 5% | growth without the antidote (in words) (Arabidopsis seeds [4]): Growth is not observed

COc1c(C)c2c(c(O)c1C/C=C(\C)CCC(=O)O)C(=O)OC2 [MPA, Mycophenolic Acid]
Growth, % of Control (Arabidopsis seeds [4]; No antidote, 0 mM): 0% | Growth, % of Control (Arabidopsis seeds [4]; antidote AMP 0.5-5.0 mM): 5% | Growth, % of Control (Arabidopsis seeds [4]; antidote Adenine 0.5-5.0 mM): 0% | Growth, % of Control (Arabidopsis seeds [4]; antidote Adenosine 0.5-5.0 mM): 5% | Growth, % of Control (Arabidopsis seeds [4]; antidote GMP 0.5-5.0 mM): 90% | Growth, % of Control (Arabidopsis seeds [4]; antidote Guanine 0.5-5.0 mM): 40% | Growth, % of Control (Arabidopsis seeds [4]; antidote Guanosine 0.5-5.0 mM): 80% | Growth, % of Control (Arabidopsis seeds [4]; antidote IMP 0.5-5.0 mM): 5% | growth without the antidote (in words) (Arabidopsis seeds [4]): Growth is not observed

NC(=O)c1ncn([C@@H]2O[C@H](CO)[C@@H](O)[C@H]2O)n1 [TCR, 1,2,4-triazole-3-carboxamide-1-ribose]
growth without the antidote (in words) (Arabidopsis seeds [4]): Growth is not observed

O=CN(O)CC(=O)O [hadacidin]
product formation by ADSS (ADSS from E. coli): Product is not formed | product formation by ADSS (ADSS from rat liver): Product is not formed | mode of ADSS inhibition [5]: competitively with aspartate | product formation by ADSS (ADSS from wheat germ): Product is not formed | effect on the rate of ASL activity [2]: no effect | IC50 ([3]; "under these conditions", ADSS source not given): 3 µM | product formation by ADSS [3]: Product is not formed | time course of ADSS inhibition [3]: not time dependent | Growth, % of Control (Arabidopsis seeds [4]; No antidote, 0 mM): 0% | Growth, % of Control (Arabidopsis seeds [4]; antidote ADP 0.5-5.0 mM): 100% | Growth, % of Control (Arabidopsis seeds [4]; antidote AMP 0.5-5.0 mM): 100% | Growth, % of Control (Arabidopsis seeds [4]; antidote ATP 0.5-5.0 mM): 40% | Growth, % of Control (Arabidopsis seeds [4]; antidote Adenine 0.5-5.0 mM): 55% | Growth, % of Control (Arabidopsis seeds [4]; antidote Adenosine 0.5-5.0 mM): 80-100% | Growth, % of Control (Arabidopsis seeds [4]; [6]): 80% | Growth, % of Control (Arabidopsis seeds [4]; [7]): 0% | Growth, % of Control (Arabidopsis seeds [4]; antidote Guanine 0.5-5.0 mM): 0% | Growth, % of Control (Arabidopsis seeds [4]; antidote Guanosine 0.5-5.0 mM): 0% | Growth, % of Control (Arabidopsis seeds [4]; [8]): 0% | Growth, % of Control (Arabidopsis seeds [4]; antidote IMP 0.5-5.0 mM): 5% | growth without the antidote (in words) (Arabidopsis seeds [4]): Growth is not observed

N-acetyl hydantocidin
inhibition of ADSS (in words) (ADSS from E. coli): neither the E. coli nor the rat liver ADSS are inhibited | inhibition of ADSS (in words) (ADSS from rat liver): neither the E. coli nor the rat liver ADSS are inhibited | IC90 (Arabidopsis seeds [1]): ~12 µM | effect on the rate of ASL activity [2]: no effect | Growth, % of Control (Arabidopsis seeds [4]; No antidote, 0 mM): 0% | Growth, % of Control (Arabidopsis seeds [4]; antidote ADP 0.5-5.0 mM): 100% | Growth, % of Control (Arabidopsis seeds [4]; antidote AMP 0.5-5.0 mM): 100% | Growth, % of Control (Arabidopsis seeds [4]; antidote ATP 0.5-5.0 mM): 40% | Growth, % of Control (Arabidopsis seeds [4]; antidote Adenine 0.5-5.0 mM): 60% | Growth, % of Control (Arabidopsis seeds [4]; antidote Adenosine 0.5-5.0 mM): 80-100% | Growth, % of Control (Arabidopsis seeds [4]; [6]): 80% | Growth, % of Control (Arabidopsis seeds [4]; [7]): 0% | Growth, % of Control (Arabidopsis seeds [4]; antidote Guanine 0.5-5.0 mM): 0% | Growth, % of Control (Arabidopsis seeds [4]; antidote Guanosine 0.5-5.0 mM): 0% | Growth, % of Control (Arabidopsis seeds [4]; [8]): 0% | Growth, % of Control (Arabidopsis seeds [4]; antidote IMP 0.5-5.0 mM): 5% | growth without the antidote (in words) (Arabidopsis seeds [4]): Growth is not observed
